Data on one molecule can be found in patent publication US4056625A, “Pesticidal compositions containing benzodioxole derivatives and methods of combating pests” (priority 1972, dated 1977).

Series [1] has as its system adult female houseflies (Musca domestica). Kind of series: Housefly mortality on treated filter papers (Examples 32-40). Format: in vivo. Particulars: 100 milligrams per square foot, after 24 hours. The text has this: 9 centimeter diameter filter papers treated with aqueous acetone solutions of each of the compounds
at rates equivalent to 100 milligrams per square foot (100 mgm./0.09 m^2.) of active ingredient were placed in 9 centimeter diameter Petri dishes. Batches of adult female houseflies (Musca domestica) lightly anaesthetised with carbon dioxide were then introduced into the dishes and a glass lid placed over each.

Series [2] has as its system second instar larvae of the cabbage white butterfly (Pieris brassicae). Kind of series: Cabbage white butterfly larvae on treated cabbage leaf discs (Examples 41-48). Format: in vivo. The settings on record: 10, 5, 1, 0.5 and 0.25 pounds per acre, three replications, after 48 hours. The text has this:
7 centimeter diameter circular discs of cabbage leaves were painted with 1 milliliter aqueous acetone solutions of each of the following compounds:
in each case at concentrations equivalent to leaf applications of 10, 5, 1, 0.5 and 0.25 pounds per acre (11.2, 5.6, 1.12, 0.56 and 0.28 kg./hectare) of active ingredient. When the deposit on the leaf discs had dried, each leaf disc was placed in a 9 centimeter diameter Petri dish, infested with ten second instar larvae of the cabbage white butterfly (Pieris brassicae) and covered with a glass lid. Three replications were made with each compound at each concentration level.

The subject of series [3] is adult apterous vetch aphids (Megoura viciae). Kind of series: Vetch aphids on sprayed field beans (Examples 49 and 50). Particulars: 100 parts per million, 50 gallons per acre, 24 hours. Format: in vivo. An excerpt:
Aqueous suspensions containing 100 parts per million of 2,2-dimethyl-1,3-benzodioxol-4-yl N-methylcarbamate and 2,2-dimethyl-1,3-benzodioxol-4-yl N-acetyl-N-methylcarbamate were sprayed at a rate equivalent to 50 gallons per acre (585 liters per hectare) on young field beans (Vicia faba) infested with adult apterous vetch aphids (Megoura viciae). After treatment the plants were enclosed in glass cages with gauze tops for ventilation.

The test system of series [4] is first instar larvae of the sheep blowfly (Lucilia sericata). Kind of series: Sheep blowfly larvae on treated cotton wool pads (Examples 53-60). Format: in vivo. Particulars: 1/2 ml. of acetone solution on cotton wool pads, after 24 hours. As for the experimental part: Cylindrical pads of cotton wool, approximate diameter 1 cm., length 2 cms. were treated with 1/2 ml. of acetone solutions of the following carbamates:
After leaving for 12 hours to dry, the pads were treated with 1 ml. of sheep blood serum and infested with 20 first instar larvae of the sheep blowfly (Lucilia sericata). After 24 hours, the blowflies were examined and found to be all dead; insects similarly infested on untreated pads were unaffected.

In series [5] the test system is first stage larvae of the cattle tick, Boophilus microplus. Kind of series: Cattle tick larvae in treated filter paper packets (Example 65). The series is classed as in vivo. Particulars: 30 parts per million, 25° C, 24 hours. As for the experimental part: Filter papers, diameter 9 cm., were treated with 1 ml. of acetone solutions containing 30 parts per million of 2,2-dimethyl-1,3-benzodioxol-4-yl N-methylcarbamate or 7-chloro-2,2-dimethyl-1,3-benzodioxol-4-yl N-methylcarbamate. When they had dried, they were folded into quadrant shaped packets, infested with 20 first stage larvae of the cattle tick, Boophilus microplus, closed with a metal clip and kept at 25° C for 24 hours.

Series [6] deals with 2nd stage nymph of the German cockroach (Blattella germanica). Kind of series: LC50 against German cockroach nymphs in treated glass tubes (Example 69). Format: in vivo. As for the experimental part:
Compounds 2 and 4 and also 2,2-dimethyl-1,3- benzodioxol-4-yl N-methylcarbamate(compound 5) and 2,2-dimethyl-1,3-benzodioxol-4-yl N-acetyl-N-methylcarbamate (compound 6) were tested for activity against the 2nd stage nymph of the German cockroach (Blattella germanica), of the order Orthoptera, by treating the walls of glass tubes (9.0 cm high × 4.5 cm diameter) with acetone solutions of the compounds and after the acetone had evaporated caging the insects in the tubes for 48 hours. The highest dosage rate employed was 50 mg/ft^2 (532 mg/m^2).
(§1) If complete kill was obtained at the highest dosage rate, the test was repeated using a logarithmically reducing dose regime until less than 50% mortality was recorded. The LC50 was then calculated from the line of best fit from the data plotted on log/provit analysis paper.
The LC50 values are abbreviated on a 0-6 scale where

Series [7] deals with adult female houseflies (Musca domestica). The experiment in a line: LC50 against adult female houseflies on filter papers (Example 70). Particulars: adult female houseflies, 24 hours; 0-6 scale (mg/ft^2). Format: in vivo. As for the experimental part:
as §1
(§2) Similarly LC50 values were obtained against various pests as described in Examples 70-73 where, however, the LC50 values are abbreviated on a 0-6 scale where
LC50 values were obtained for each of Compounds 1, 2, 3, 4, 5 and 6 against adult female houseflies (Musca domestica), of the order Diptera. The tests were carried out by adding acetone solutions of the compounds to 9 cm diameter filter papers in the base of 9 cm diameter crystallising dishes, placing the houseflies in the dishes after the acetone had evaporated, closing the dishes with Petri dish lids and counting the mortality after 24 hours. The highest dosage rate employed was 1000 mg/ft^2 (10.65 g/m^2).

For series [8], the system named is larvae of the sheep maggot fly (Lucilia sericata). The experiment in a line: LC50 against sheep maggot fly larvae on dental rolls (Example 71). Format: in vivo. The settings on record: Lucilia sericata; sheep maggot fly larvae, 24 hours; 0-6 scale (ppm); read-out: LC50 value. As for the experimental part:
as §1, §2
Similarly, LC50 values were obtained for each of Compounds 1, 2, 3, 4, 5 and 6 against larvae of the sheep maggot fly (Lucilia sericata), of the order Diptera. The tests were carried out by placing newly hatched larvae on dental rolls contained in glass vials and soaked with 1 ml of blood serum containing the compound. The mortality was assessed after 24 hours. The highest dosage rate employed was 1000 ppm.

The test system of series [9] is adult red spider mites (Tetranychus telarius). The experiment in a line: LC50 against adult red spider mites on sprayed French beans (Example 73). The series is classed as in vivo. Particulars: adult red spider mites, 48 hours, 0-6 scale (ppm), read-out: LC50 value. As for the experimental part: as §1, §2
Similarly, LC50 values were obtained for each of Compounds 1, 2, 4, 5 and 6 against adult red spider mites (Tetranychus telarius), of the order Acarina. The tests were carried out by spraying infected French beans with a 50% acetone water solution of the compound, containing 500 ppm of Lissapol NX as a wetting agent, and recording the mortality after 48 hours. The highest dosage rate employed was 1000 ppm which is equivalent to 10 lb/acre (11.20 kg/ha).

A short description of series [10]: Acute oral LD50 to rats (Example 76). The series is classed as in vivo, rat (Wystar strain). The settings on record: in vivo, po; rat male, by stomach tube in 0.4% tragacanth, up to 5 days. As for the experimental part: (§3) Mammalian toxicity was assessed by measuring the acute oral LD50 to rats and mice. Componds were dissolved or suspended in a 0.4% tragacanth solution and administered by stomach tube to the test animal. The mice used were 10 to 15 g weanlings of the Carshalton CFW strain whilst the rats were 30 to 40 g weanlings of Wystar strain. Three replicates per dosage rate were employed and the mortality was recorded daily for up to 5 days. The LD50 values were calculated as for those for insecticidal and acaricidal activity above.

The nature of series [11]: Acute oral LD50 to mice (Example 76). Details: species or system mouse (Carshalton CFW strain). Particulars: in vivo, mouse, by stomach tube in 0.4% tragacanth, up to 5 days. As for the experimental part: as §3
In series [12] the test system is domestic and public health insect pests. Kind of series: Indoor treatment against domestic and public health insect pests. The settings on record: 200 mg per square meter, aqueous spray containing 0.25% active ingredient; ants, bed bugs, fleas, houseflies, silverfish, mosquitoes, wasps, carpet beetles, crickets, cockroaches. Format: in vivo. The text has this:
In a preferred application, the compounds and especially 2,2-dimethyl-1,3-benzodioxol-4-yl N-methylcarbamate are used to combat domestic and public health insect pests. For this use, the compounds are generally applied indoors, e.g. in buildings or on ships, for example in food preparation or storage areas e.g. in houses, flats, warehouses and ships. The compounds are suitably applied at a rate of 50-2000, preferably about 50-1,000, for example 200, mg per square meter.

Converted amounts (≈) assume the structure as drawn.

Consider `CNC(=O)Oc1cccc2c1OC(C)(C)O2` [Compound 5, 2,2-dimethyl-1,3-benzodioxol-4-yl N-methylcarbamate], for which the mortality of houseflies result in [1] was “all found to be dead”. Moreover, the “mortality of cabbage white butterfly larvae” value in [2] is “all found to be dead”. Further, the “kill of vetch aphids” value in [3] was “complete kill of the aphids in 24 hours”. In addition, in series [4], the “mortality of sheep blowfly larvae” value is given as “all dead”. For the same molecule, the “mortality of cattle tick larvae” value in series [5] was “all the ticks in the treated filter papers were dead”. The LC50 value in series [6] (2nd stage nymph German cockroach, 48 hours, 0-6 scale) is 5 (0.15-0.5 mg/ft^2 (1.6-5.3 mg/m^2)); in series [7] it was 4 (10-29 mg/ft^2 (107-310 mg/m^2)). Moreover, in series [6] (cockroaches), the “activity against cockroaches (in words)” value is “outstandingly good activity against cockroaches”. Further, the median lethal concentration (LC50) (as a rule, the concentration lethal to half of the exposed cells or organisms) in [8] is 3 to 9 µg/mL (≈ 13.4 to 40.3 µM); in [9], greater than 1000 µg/mL. Moreover, the LD50 at 120 h in [10] and in [11] was 45 mg/kg each time. Further, the “effectiveness against domestic and public health pests (in words)” value in series [12] is listed as “effective against a wide range of such pests”.
